Results: ChEMBL document CHEMBL1909046, “DrugMatrix in vitro pharmacology data”

Assays:
[1] = target: Beta-1 adrenergic receptor (Homo sapiens, UniProt P08588); test: DRUGMATRIX: Adrenergic beta1 radioligand binding (ligand: [125I] Cyanopindolol); format: cell membranes, CHO-K1, Membrane; details: cho-k1; Not Active = under 50% inhibition at 10 µM
[2] = DRUGMATRIX: ATPase, Na+/K+ enzyme inhibition (substrate: ATP); format: tissue-based, Sus scrofa, Heart; details: Not Active = under 50% inhibition at 10 µM
[3] = DRUGMATRIX: Purinergic P2X radioligand binding (ligand: [3H] alpha, beta-Methylene-ATP); format: cell membranes, Oryctolagus cuniculus, New Zealand albino, Urinary bladder, Membrane; details: Not Active = under 50% inhibition at 10 µM
Melanocortin receptor 3 = Melanocortin receptor 3 (Homo sapiens, UniProt P41968); format: cell membranes, Membrane; details: hek293; further: in other assays of this panel Not Active means under 50% inhibition at 10 µM
Chain of Melanocortin receptor 3 (P41968 whole entry): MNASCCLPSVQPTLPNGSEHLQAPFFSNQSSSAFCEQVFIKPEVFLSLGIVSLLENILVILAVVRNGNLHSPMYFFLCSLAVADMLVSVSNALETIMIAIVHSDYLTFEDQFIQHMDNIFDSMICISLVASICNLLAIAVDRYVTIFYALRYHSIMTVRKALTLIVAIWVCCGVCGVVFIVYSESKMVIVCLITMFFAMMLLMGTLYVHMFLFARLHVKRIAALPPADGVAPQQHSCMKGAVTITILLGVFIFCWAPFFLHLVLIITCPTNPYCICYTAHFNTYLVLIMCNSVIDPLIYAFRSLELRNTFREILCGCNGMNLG

[4] = target: T1, Vasoactive intestinal polypeptide receptor 1 (Homo sapiens, UniProt P32241); format: cell membranes, Membrane; details: ht-29; further: in other assays of this panel Not Active means under 50% inhibition at 10 µM
T1 sequence (P32241 whole entry): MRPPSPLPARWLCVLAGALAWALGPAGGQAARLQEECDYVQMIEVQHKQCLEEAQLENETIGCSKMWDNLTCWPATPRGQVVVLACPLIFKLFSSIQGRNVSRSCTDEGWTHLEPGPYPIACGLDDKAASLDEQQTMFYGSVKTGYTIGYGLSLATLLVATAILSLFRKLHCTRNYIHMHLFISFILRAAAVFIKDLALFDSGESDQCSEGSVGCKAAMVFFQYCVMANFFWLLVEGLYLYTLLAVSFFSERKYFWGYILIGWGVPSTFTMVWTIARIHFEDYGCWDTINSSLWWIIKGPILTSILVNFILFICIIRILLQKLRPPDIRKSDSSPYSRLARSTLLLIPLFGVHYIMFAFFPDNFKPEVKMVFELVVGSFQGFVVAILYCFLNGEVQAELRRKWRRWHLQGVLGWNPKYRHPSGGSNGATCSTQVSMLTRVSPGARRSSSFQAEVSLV

[5] = DRUGMATRIX: Calcium Channel Type L, Phenylalkylamine radioligand binding (ligand: [3H] (-)-Desmethoxyverapamil (D-888)); format: cell membranes, Rattus norvegicus, Wistar, Brain, Membrane; details: Not Active = under 50% inhibition at 10 µM
[6] = target: Sodium-dependent dopamine transporter (Homo sapiens, UniProt Q01959); test: DRUGMATRIX: Dopamine Transporter radioligand binding (ligand: [125I] RTI-55); format: cell membranes, CHO-K1, Membrane; details: cho-k1; Not Active = under 50% inhibition at 10 µM
Chain of Sodium-dependent dopamine transporter (Q01959 whole entry): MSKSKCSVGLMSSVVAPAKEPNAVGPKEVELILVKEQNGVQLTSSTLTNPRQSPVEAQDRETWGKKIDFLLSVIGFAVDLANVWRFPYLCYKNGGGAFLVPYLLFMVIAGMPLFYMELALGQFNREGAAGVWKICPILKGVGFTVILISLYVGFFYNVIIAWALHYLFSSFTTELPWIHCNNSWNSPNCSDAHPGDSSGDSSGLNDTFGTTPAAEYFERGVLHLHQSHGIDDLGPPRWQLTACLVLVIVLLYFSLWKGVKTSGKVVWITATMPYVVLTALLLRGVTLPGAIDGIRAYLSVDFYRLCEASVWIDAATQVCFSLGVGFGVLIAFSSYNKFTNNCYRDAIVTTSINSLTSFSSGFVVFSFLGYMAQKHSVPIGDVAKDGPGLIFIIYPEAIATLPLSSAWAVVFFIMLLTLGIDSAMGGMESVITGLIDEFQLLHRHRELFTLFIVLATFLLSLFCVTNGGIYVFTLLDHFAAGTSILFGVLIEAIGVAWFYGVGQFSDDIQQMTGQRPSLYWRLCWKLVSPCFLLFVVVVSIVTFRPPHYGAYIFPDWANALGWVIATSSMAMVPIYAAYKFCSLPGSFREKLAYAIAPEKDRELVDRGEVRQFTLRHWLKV

Cytochrome P450 1A2 = target: T2, Cytochrome P450 1A2 (Homo sapiens, UniProt P05177); details: bti-tn-5b1-4; further: in other assays of this panel Not Active means under 50% inhibition at 10 µM
T2 sequence (P05177 whole entry): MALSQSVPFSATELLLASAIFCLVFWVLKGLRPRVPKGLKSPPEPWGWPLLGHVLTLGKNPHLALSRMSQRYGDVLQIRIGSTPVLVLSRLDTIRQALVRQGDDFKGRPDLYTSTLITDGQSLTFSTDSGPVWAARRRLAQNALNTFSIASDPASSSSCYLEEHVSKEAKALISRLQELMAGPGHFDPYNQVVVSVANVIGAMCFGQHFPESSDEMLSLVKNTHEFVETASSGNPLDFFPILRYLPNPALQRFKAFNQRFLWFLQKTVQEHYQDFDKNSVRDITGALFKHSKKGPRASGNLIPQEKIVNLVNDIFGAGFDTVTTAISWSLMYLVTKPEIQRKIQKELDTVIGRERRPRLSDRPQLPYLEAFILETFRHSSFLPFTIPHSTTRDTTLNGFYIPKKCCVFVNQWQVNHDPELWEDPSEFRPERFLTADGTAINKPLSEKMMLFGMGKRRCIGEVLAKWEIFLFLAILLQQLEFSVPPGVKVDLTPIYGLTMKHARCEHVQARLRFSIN

Chain of Beta-1 adrenergic receptor (P08588 whole entry): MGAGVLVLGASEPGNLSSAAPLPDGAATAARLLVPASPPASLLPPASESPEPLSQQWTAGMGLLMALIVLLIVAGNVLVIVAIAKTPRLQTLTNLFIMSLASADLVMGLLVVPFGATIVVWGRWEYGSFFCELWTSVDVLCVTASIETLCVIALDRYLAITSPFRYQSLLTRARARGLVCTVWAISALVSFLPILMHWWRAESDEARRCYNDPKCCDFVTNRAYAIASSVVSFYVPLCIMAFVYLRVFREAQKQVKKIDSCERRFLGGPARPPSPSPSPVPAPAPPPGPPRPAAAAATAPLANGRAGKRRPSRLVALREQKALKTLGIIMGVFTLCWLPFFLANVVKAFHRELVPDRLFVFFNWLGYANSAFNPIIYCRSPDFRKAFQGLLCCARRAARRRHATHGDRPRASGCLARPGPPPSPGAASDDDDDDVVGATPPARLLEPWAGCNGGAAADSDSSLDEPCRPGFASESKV

CCS(=O)(=O)CCn1c([N+](=O)[O-])cnc1C [TINIDAZOLE]
Not Active: IC50 [1] | IC50 [2] | Ki [2] | IC50 [3] | Ki [3] | IC50 (Melanocortin receptor 3) | IC50 [4] | IC50 [5] | Ki [5] | IC50 [6]

Nc1nc2c(c(=O)[nH]1)N(C=O)C(CNc1ccc(C(=O)N[C@@H](CCC(=O)O)C(=O)O)cc1)CN2 (stereo not given in full) [LEUCOVORIN]
Not Active: IC50 [1] | IC50 [2] | Ki [2] | IC50 [3] | Ki [3] | IC50 (Cytochrome P450 1A2) | Ki (Cytochrome P450 1A2) | IC50 (Melanocortin receptor 3) | IC50 [4] | IC50 [5] | Ki [5] | IC50 [6]

CC(=O)O[C@H]1C[C@@H]2CC[C@@H]3[C@H](CC[C@@]4(C)[C@H]3C[C@H]([N+]3(C)CCCCC3)[C@@H]4OC(C)=O)[C@@]2(C)C[C@@H]1N1CCCCC1.[Br-] [VECURONIUM BROMIDE]
Not Active: IC50 [1] | IC50 [2] | Ki [2] | IC50 [3] | Ki [3] | IC50 (Cytochrome P450 1A2) | Ki (Cytochrome P450 1A2) | IC50 (Melanocortin receptor 3) | IC50 [4] | IC50 [5] | Ki [5] | IC50 [6]

C[C@@H](O)[C@H]1C(=O)N2C(C(=O)O)=C(S[C@@H]3CN[C@H](C(=O)N(C)C)C3)[C@H](C)[C@H]12 [MEROPENEM]
Not Active: IC50 [1] | IC50 [2] | Ki [2] | IC50 [3] | Ki [3] | IC50 (Cytochrome P450 1A2) | Ki (Cytochrome P450 1A2) | IC50 (Melanocortin receptor 3) | IC50 [4] | IC50 [5] | Ki [5] | IC50 [6]

Cc1cn([C@H]2C[C@H](N=[N+]=[N-])[C@@H](CO)O2)c(=O)[nH]c1=O [ZIDOVUDINE]
Not Active: IC50 [1] | IC50 [2] | Ki [2] | IC50 [3] | Ki [3] | IC50 (Cytochrome P450 1A2) | Ki (Cytochrome P450 1A2) | IC50 (Melanocortin receptor 3) | IC50 [4] | IC50 [5] | Ki [5] | IC50 [6]

COc1cc(N)nc2[nH]c(-c3ccc(F)cc3)c(-c3ccncc3)c12
Not Active: IC50 [1] | IC50 [2] | Ki [2] | IC50 [3] | Ki [3] | IC50 (Cytochrome P450 1A2) | Ki (Cytochrome P450 1A2) | IC50 (Melanocortin receptor 3) | IC50 [4] | IC50 [5] | Ki [5] | IC50 [6]

CN1C2CCCC1CC(NC(=O)c1nn(C)c3ccccc13)C2 (stereo not given) [GRANISETRON]
Not Active: IC50 [1] | IC50 (Cytochrome P450 1A2) | Ki (Cytochrome P450 1A2) | IC50 (Melanocortin receptor 3) | IC50 [4] | IC50 [6]

THIMEROSAL
Not Active: IC50 [1] | Ki [1] | IC50 [2] | Ki [2] | IC50 [3] | Ki [3] | IC50 (Cytochrome P450 1A2) | Ki (Cytochrome P450 1A2) | IC50 (Melanocortin receptor 3) | Ki (Melanocortin receptor 3) | IC50 [4] | Ki [4] | IC50 [5] | Ki [5] | IC50 [6] | Ki [6]

C[C@]12CC[C@H]3[C@@H](CCC4=CC(=O)CC[C@@]43C)[C@@H]1CC[C@@H]2O [TESTOSTERONE]
Not Active: IC50 [1] | IC50 [2] | Ki [2] | IC50 [3] | Ki [3] | IC50 (Cytochrome P450 1A2) | Ki (Cytochrome P450 1A2) | IC50 (Melanocortin receptor 3) | IC50 [4] | IC50 [5] | Ki [5] | IC50 [6]

CNS(=O)(=O)Cc1ccc2[nH]cc(CCN(C)C)c2c1
Not Active: IC50 [1] | IC50 [2] | Ki [2] | IC50 [3] | Ki [3] | IC50 (Cytochrome P450 1A2) | Ki (Cytochrome P450 1A2) | IC50 (Melanocortin receptor 3) | IC50 [4] | IC50 [5] | Ki [5] | IC50 [6]

CO[C@H]1C[C@@H]2CC[C@@H](C)[C@@](O)(O2)C(=O)C(=O)N2CCCC[C@H]2C(=O)O[C@H]([C@H](C)C[C@@H]2CC[C@@H](O)[C@H](OC)C2)CC(=O)[C@H](C)/C=C(\C)[C@@H](O)[C@@H](OC)C(=O)[C@H](C)C[C@H](C)/C=C/C=C/C=C/1C [SIROLIMUS]
Not Active: IC50 [1] | IC50 [2] | Ki [2] | IC50 [3] | Ki [3] | IC50 (Cytochrome P450 1A2) | Ki (Cytochrome P450 1A2) | IC50 (Melanocortin receptor 3) | IC50 [4] | IC50 [5] | Ki [5] | IC50 [6]

CC(C)OC(=O)C(C)(C)Oc1ccc(C(=O)c2ccc(Cl)cc2)cc1 [FENOFIBRATE]
Not Active: IC50 [1] | IC50 (Cytochrome P450 1A2) | Ki (Cytochrome P450 1A2) | IC50 (Melanocortin receptor 3) | IC50 [4]

CN(CCOc1ccc(CC2SC(=O)NC2=O)cc1)c1ccccn1 (stereo not given) [ROSIGLITAZONE]
Not Active: IC50 [1] | IC50 [2] | Ki [2] | IC50 [3] | Ki [3] | IC50 (Cytochrome P450 1A2) | Ki (Cytochrome P450 1A2) | IC50 (Melanocortin receptor 3) | IC50 [4] | IC50 [5] | Ki [5] | IC50 [6]

OCCN1CCN(CCCN2c3ccccc3Sc3ccc(C(F)(F)F)cc32)CC1 [FLUPHENAZINE]
Not Active: IC50 [1] | IC50 (Melanocortin receptor 3) | IC50 [4]

COc1ccc(CN2CCNCC2)c(OC)c1OC [TRIMETAZIDINE]
Not Active: IC50 [1] | IC50 [2] | Ki [2] | IC50 [3] | Ki [3] | IC50 (Melanocortin receptor 3) | IC50 [4] | IC50 [5] | Ki [5] | IC50 [6]

CC[C@@H](CO)NC(=O)[C@@H]1C=C2c3cccc4c3c(cn4C)C[C@H]2N(C)C1 [METHYSERGIDE]
Not Active: IC50 (Cytochrome P450 1A2) | Ki (Cytochrome P450 1A2) | IC50 (Melanocortin receptor 3) | IC50 [4] | IC50 [6]

CN[C@@H]1[C@H](O)[C@H](NC)[C@H]2O[C@@]3(O)C(=O)C[C@@H](C)O[C@H]3O[C@@H]2[C@H]1O [SPECTINOMYCIN]
Not Active: IC50 [1] | IC50 [2] | Ki [2] | IC50 [3] | Ki [3] | IC50 (Melanocortin receptor 3) | IC50 [4] | IC50 [5] | Ki [5] | IC50 [6]

CC(=O)Nc1nnc(S(N)(=O)=O)s1 [ACETAZOLAMIDE]
Not Active: IC50 [1] | IC50 (Cytochrome P450 1A2) | Ki (Cytochrome P450 1A2) | IC50 (Melanocortin receptor 3) | IC50 [4] | IC50 [6]

CCN(CC)CC#CCOC(=O)C(O)(c1ccccc1)C1CCCCC1 (stereo not given) [OXYBUTYNIN]
Not Active: IC50 [1] | IC50 (Cytochrome P450 1A2) | Ki (Cytochrome P450 1A2) | IC50 (Melanocortin receptor 3) | IC50 [4]

CC(C)(C)NC[C@H](O)COc1nsnc1N1CCOCC1 [TIMOLOL]
Not Active: IC50 [2] | Ki [2] | IC50 [3] | Ki [3] | IC50 (Cytochrome P450 1A2) | Ki (Cytochrome P450 1A2) | IC50 (Melanocortin receptor 3) | IC50 [4] | IC50 [5] | Ki [5] | IC50 [6]

O=c1[nH]c2ccccc2n1CCCN1CCC(n2c(=O)[nH]c3cc(Cl)ccc32)CC1 [DOMPERIDONE]
Not Active: IC50 [1] | IC50 (Melanocortin receptor 3) | IC50 [4] | IC50 [6]

O=c1n(CCCN2CCN(c3cccc(Cl)c3)CC2)nc2ccccn12 [TRAZODONE]
Not Active: IC50 [1] | IC50 (Cytochrome P450 1A2) | Ki (Cytochrome P450 1A2) | IC50 (Melanocortin receptor 3) | IC50 [4] | IC50 [6]

NC[C@H]1O[C@H](O[C@H]2[C@H](O)[C@@H](O[C@H]3O[C@H](CO)[C@@H](O)[C@H](N)[C@H]3O)[C@H](N)C[C@@H]2N)[C@H](N)C[C@@H]1O [TOBRAMYCIN]
Not Active: IC50 [1] | IC50 [2] | Ki [2] | IC50 [3] | Ki [3] | IC50 (Melanocortin receptor 3) | IC50 [4] | IC50 [5] | Ki [5] | IC50 [6]
